Our source for the IC50 values is patent US11878975B2, “Substituted indole compounds useful as TLR inhibitors” (BRISTOL-MYERS SQUIBB COMPANY, priority 2017, dated 2024).

A value given as a limit tells only on which side of the number the result lay.

Holding throughout (type): cell-based
One test concerns the target T1, human TLR7 (Homo sapiens, UniProt Q9NYK1).
T1 construct: host or cells: HEK-Blue cells
T1 sequence (Q9NYK1 27-1049): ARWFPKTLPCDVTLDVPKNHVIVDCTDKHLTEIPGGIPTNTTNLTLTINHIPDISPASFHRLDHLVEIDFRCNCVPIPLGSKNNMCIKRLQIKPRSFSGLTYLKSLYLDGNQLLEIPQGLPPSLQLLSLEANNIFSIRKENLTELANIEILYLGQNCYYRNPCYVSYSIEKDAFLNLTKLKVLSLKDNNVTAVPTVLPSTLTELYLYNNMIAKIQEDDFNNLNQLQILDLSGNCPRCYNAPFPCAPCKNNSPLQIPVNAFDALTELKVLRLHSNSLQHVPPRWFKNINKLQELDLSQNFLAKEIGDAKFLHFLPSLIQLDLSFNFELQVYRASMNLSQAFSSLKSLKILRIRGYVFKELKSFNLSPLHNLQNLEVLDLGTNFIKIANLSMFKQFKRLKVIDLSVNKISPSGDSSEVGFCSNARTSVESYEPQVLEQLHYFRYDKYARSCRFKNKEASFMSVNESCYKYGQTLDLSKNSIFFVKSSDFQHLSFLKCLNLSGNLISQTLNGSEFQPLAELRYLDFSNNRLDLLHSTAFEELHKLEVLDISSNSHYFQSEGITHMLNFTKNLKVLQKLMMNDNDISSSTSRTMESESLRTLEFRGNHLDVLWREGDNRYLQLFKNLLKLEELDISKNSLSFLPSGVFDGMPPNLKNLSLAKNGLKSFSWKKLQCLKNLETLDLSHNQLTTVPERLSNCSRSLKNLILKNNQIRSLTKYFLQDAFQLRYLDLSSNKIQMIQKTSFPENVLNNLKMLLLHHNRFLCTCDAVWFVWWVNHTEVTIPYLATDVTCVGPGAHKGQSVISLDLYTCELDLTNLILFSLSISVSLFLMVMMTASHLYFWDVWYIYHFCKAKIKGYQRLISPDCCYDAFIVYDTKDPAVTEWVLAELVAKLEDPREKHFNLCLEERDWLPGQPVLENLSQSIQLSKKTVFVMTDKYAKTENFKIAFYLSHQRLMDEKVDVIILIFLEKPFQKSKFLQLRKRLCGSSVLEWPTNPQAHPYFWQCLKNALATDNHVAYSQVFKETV
The experiment in a line: TLR7 inhibition reporter assay (HEK-Blue cells, SEAP reporter, gardiquimod stimulation). As to conditions: HEK-Blue cells overexpressing human TLR7, SEAP reporter, gardiquimod 7.5 μM. In outline:
(§1)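 Percent inhibition is derived from SEAP signal, scaled between agonist-plus-DMSO wells and wells given a known inhibitor. Test compounds (0.05 nM–50 μM) are pre-incubated 30 min at room temperature before agonist addition (TLR7: 7.5 μM gardiquimod; TLR8: 15.9 μM R848; TLR9: 5 nM ODN2006) and 22 h culture at 37 °C.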
A general note: In a reporter assay the amount or activity of a reporter protein is the signal.

For a further test, the target named is T2, human TLR8 (Homo sapiens, UniProt Q9NR97).
T2 construct: host or cells: HEK-Blue cells
T2 sequence (Q9NR97 27-1041): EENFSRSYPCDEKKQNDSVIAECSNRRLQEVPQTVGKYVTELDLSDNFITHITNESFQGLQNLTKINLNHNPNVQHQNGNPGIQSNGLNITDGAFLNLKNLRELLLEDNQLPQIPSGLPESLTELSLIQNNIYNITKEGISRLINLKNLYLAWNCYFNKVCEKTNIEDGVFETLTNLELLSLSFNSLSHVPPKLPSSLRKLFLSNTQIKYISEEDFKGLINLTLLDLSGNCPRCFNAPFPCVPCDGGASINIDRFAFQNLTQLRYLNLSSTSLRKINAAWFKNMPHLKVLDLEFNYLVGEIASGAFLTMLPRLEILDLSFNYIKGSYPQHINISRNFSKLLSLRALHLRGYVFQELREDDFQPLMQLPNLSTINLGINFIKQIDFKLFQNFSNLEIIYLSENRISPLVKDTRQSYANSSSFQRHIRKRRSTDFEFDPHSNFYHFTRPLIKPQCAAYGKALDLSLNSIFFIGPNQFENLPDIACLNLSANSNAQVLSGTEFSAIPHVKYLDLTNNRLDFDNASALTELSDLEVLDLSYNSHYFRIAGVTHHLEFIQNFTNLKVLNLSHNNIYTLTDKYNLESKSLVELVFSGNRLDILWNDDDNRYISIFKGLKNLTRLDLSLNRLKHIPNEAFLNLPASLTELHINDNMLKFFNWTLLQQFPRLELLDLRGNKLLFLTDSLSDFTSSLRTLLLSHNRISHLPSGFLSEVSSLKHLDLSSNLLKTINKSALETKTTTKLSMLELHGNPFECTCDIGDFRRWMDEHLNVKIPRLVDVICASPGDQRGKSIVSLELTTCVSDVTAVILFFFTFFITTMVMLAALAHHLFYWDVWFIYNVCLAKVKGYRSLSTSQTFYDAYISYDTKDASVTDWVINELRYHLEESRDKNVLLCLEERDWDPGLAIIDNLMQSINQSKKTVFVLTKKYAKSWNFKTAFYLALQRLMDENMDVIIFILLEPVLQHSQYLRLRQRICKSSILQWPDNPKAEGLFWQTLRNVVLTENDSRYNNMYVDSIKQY
The test is described as follows: TLR8 inhibition reporter assay (HEK-Blue cells, SEAP reporter, R848 stimulation). As to conditions: HEK-Blue cells overexpressing human TLR8, SEAP reporter, R848 15.9 μM. An outline of the steps: as §1

For the next test, the target named is T3, human TLR9 (Homo sapiens, UniProt Q9NR96).
T3 construct: host or cells: HEK-Blue cells
T3 sequence (Q9NR96 26-1032): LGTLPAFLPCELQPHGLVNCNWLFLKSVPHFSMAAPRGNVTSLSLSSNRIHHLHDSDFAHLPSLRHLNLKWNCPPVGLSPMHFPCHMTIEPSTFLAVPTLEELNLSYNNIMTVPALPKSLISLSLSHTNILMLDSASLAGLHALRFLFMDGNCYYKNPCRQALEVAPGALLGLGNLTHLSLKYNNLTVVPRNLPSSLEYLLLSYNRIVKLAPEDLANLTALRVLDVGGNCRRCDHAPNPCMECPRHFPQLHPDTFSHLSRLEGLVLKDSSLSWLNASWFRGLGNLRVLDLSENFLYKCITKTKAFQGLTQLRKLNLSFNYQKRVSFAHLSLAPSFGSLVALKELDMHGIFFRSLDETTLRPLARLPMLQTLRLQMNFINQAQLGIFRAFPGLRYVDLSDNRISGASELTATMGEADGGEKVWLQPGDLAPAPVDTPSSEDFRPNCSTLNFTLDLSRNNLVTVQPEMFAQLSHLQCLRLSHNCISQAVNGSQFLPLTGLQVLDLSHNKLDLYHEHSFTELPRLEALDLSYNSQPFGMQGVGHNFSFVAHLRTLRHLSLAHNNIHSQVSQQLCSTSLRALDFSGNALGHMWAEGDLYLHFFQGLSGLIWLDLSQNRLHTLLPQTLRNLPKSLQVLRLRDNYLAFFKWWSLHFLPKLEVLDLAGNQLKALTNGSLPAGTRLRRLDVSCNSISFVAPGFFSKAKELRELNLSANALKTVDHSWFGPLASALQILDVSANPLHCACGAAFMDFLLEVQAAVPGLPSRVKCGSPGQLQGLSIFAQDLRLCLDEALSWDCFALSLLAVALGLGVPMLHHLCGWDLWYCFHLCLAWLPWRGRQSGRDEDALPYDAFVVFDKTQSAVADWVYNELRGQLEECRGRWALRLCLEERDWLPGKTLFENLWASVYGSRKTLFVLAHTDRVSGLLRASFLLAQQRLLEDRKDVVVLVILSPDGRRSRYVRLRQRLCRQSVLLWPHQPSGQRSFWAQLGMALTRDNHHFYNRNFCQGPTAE
The experiment in a line: TLR9 inhibition reporter assay (HEK-Blue cells, SEAP reporter, ODN2006 stimulation). To be noted: HEK-Blue cells overexpressing human TLR9, SEAP reporter, ODN2006 5 nM. In outline:
as §1

For `CNCC(=O)NC1CCC(c2ccc3[nH]c(-c4cn5ncnc5c(C)c4C)c(C(C)C)c3c2)CC1` (stereo not drawn) [Example 128, N-(4-(2-(7,8-dimethyl-[1,2,4]triazolo[1,5-a]pyridin-6-yl)-3-isopropyl-1H-indol-5-yl)cyclohexyl)-2-(methylamino)acetamide], the figures for the IC50 against human TLR7, against human TLR8 and on human TLR9 were 0.37 nM, 1.4 nM and 2250 nM, respectively.

With `CCc1c(-c2ccnc(C)c2)[nH]c2ccc(CNC(=O)CCC3CCNCC3)cc12` [Example 444], the IC50 against human TLR7 worked out at 3060 nM; at human TLR8, 9240 nM; against human TLR9 it was 4960 nM.

Consider `Cc1cc(-c2[nH]c3ccc(C4CN(C5COC5)CCO4)cc3c2C(C)C)cn2ncnc12` (stereo not drawn) [Example 289, 2-(3-isopropyl-2-(8-methyl-[1,2,4]triazolo[1,5-a]pyridin-6-yl)-1H-indol-5-yl)-4-(oxetan-3-yl)morpholine], for which the IC50 was 9 nM against human TLR7, 24 nM against human TLR8 and > 50000 nM on human TLR9.

Regarding `Cc1c(-c2[nH]c3ccc(C4CN(C(C)C)C4)cc3c2C(C)C)cn2cnnc2c1C` [Example 534], the values for the IC50 against human TLR7, at human TLR8 and on human TLR9 were 9 nM, 28 nM and 7170 nM, respectively.

Turning to `Cc1cc(-c2[nH]c3ccc(C4CN(C(=O)CN(C)C)CCO4)cc3c2C(C)C)cc(C)n1` (stereo not drawn) [Example 336], the IC50 at human TLR7 came to 10 nM; against human TLR8, 10 nM; at human TLR9, 530 nM.

With `Cc1c(-c2[nH]c3ccc(C4CC(N(C)C(=O)CN(C)C)C4)cc3c2C(C)C)cn2ncnc2c1C` (stereo not drawn) [Example 589], the IC50 is 2 nM at human TLR7, 2.8 nM on human TLR8 and 5410 nM on human TLR9.

In the case of `Cc1cc(-c2[nH]c3ccc(C4CCN(C(=O)CN(C)C)C4)cc3c2C(C)C)cc(C)n1` (stereo not drawn) [Example 591], the IC50 against human TLR7 was determined as 8 nM; against human TLR8, 8.7 nM; on human TLR9, 1010 nM.

Regarding `COc1cc(-c2[nH]c3ccc(C4CN(C(C)C)C4)cc3c2C(C)C)cn2ncnc12` [Example 272], the concentration for half-maximal inhibition (IC50) was determined as 0.84 nM against human TLR7, 2.1 nM on human TLR8 and 1310 nM at human TLR9.

Consider `CC(C)c1c(-c2ccnc3[nH]ncc23)[nH]c2ccc(C3CCC(Oc4ccncc4)CC3)cc12` (stereo not drawn) [Example 505], for which the IC50 against human TLR7 is 347 nM; against human TLR8 it was 774 nM; on human TLR9, 13900 nM.

Turning to `Cc1cc(-c2[nH]c3ccc(C4CN(CC(N)=O)CCO4)cc3c2C(C)C)cc(C)n1` (stereo not drawn) [Example 327], the IC50 on human TLR7 is 54 nM; at human TLR8 it was 48 nM; on human TLR9 it was > 50000 nM.

In the case of `COc1cc(-c2[nH]c3ccc(C4CCC(N5CC(F)(F)C5)CC4)cc3c2C(C)C)cn2ncnc12` (stereo not drawn) [Example 18], the IC50 against human TLR7 came out at 5 nM; against human TLR8, 38 nM; against human TLR9, 33600 nM.

Take `CC(C)c1c(-c2ccnc3[nH]ncc23)[nH]c2ccc(CN3CCN(C)CC3)cc12` [Example 442]: the IC50 turned out to be 26 nM against human TLR7, 4.6 nM against human TLR8 and 7600 nM at human TLR9.

With `Cc1c(-c2[nH]c3ccc(C4CC(N)C4)cc3c2C(C)C)cn2ncnc2c1C` (stereo not drawn) [Example 542], the IC50 against human TLR7 was determined as 3 nM; against human TLR8, 1.2 nM; at human TLR9 it was 5100 nM.

On to `CCN(C)C1CCC(c2ccc3[nH]c(-c4cn5ncnc5c(C)c4C)c(C(C)C)c3c2)CC1` (stereo not drawn) [Example 87], for which the figures for the IC50 against human TLR7, against human TLR8 and against human TLR9 were 0.32 nM, 0.63 nM and 1910 nM, respectively.

As to `Cc1cc(-c2[nH]c3ccc(C4CCC(NCC(C)(C)O)CC4)cc3c2C(C)C)cn2ncnc12` (stereo not drawn) [Example 104], the IC50 at human TLR7 worked out at 3 nM; against human TLR8, 6.5 nM; against human TLR9, 6410 nM.

Regarding `Cc1cc(-c2[nH]c3ccc(C4CN(CC(C)(C)O)C(C)(C)CO4)cc3c2C(C)C)cn2ncnc12` (stereo not drawn) [Example 385], the values for the IC50 against human TLR7, on human TLR8 and at human TLR9 were 14 nM, 48 nM and 20400 nM, respectively.

In the case of `Cc1c(-c2[nH]c3ccc(C4CNCCO4)cc3c2C(C)C)cn2ncnc2c1C` (stereo not drawn) [Example 286], the results for the IC50 against human TLR7, at human TLR8 and on human TLR9 were 1 nM, 0.73 nM and 5390 nM, respectively.

As for `COc1cc(-c2[nH]c3ccc(C4CCCN(C(C)C)C4)cc3c2C(C)C)cn2ncnc12` (single isomer, unassigned) [Example 239], the IC50 at human TLR7 amounted to 2 nM; against human TLR8, 3 nM; against human TLR9 it was 1370 nM.

Turning to `COc1cc(-c2[nH]c3ccc(C4CCC(N(C)C5CC5)CC4)cc3c2C(C)C)cn2ncnc12` (stereo not drawn) [Example 13], the IC50 on human TLR7 is 1 nM; on human TLR8, 4.8 nM; against human TLR9 it was 2810 nM.

As to `Cc1cc(-c2[nH]c3ccc(C4CN(CC(C)(C)O)CCO4)cc3c2C(C)C)cc(C)n1` (stereo not drawn) [Example 357], the IC50 at human TLR7 is 36 nM; against human TLR8 it was 5.4 nM; at human TLR9, 1970 nM.

The term IC50 denotes the concentration that gives 50% inhibition. A higher IC50 goes with lower potency.
